Measured values published in US8481521B2, “Methods of treating cell proliferative disorders” (Rigel Pharmaceuticals, Inc., priority 2005, dated 2013).
In brackets after ≈: the same amount, converted by molar mass. Where two headings read alike, the source gives them in different places.

What was measured:
[1] = Solubility of drug and phosphate prodrug; format: physicochemical
From the text: In contrast, Compound 4 is highly polar at neutral pH. Measured solubility values are consistent with the predicted cLogD values at pH=7.5.

[2] = test system: TEL-Syk-transformed cells; experiment: Proliferation (DNA content) and differentiation of TEL-Syk-transformed pre-B cells; format: cell-based
Experimental: Cells were cultured for 3 days in the absence of IL-7 and analyzed for the expression of kappa LC by FACS. Experiments showing the inhibition of proliferation of Syk-transformed cells by a Syk inhibitory compound are described in […]., Abe, A., and Jumaa, H., “The protein tyrosine kinase Syk is involved in malignant transformation and leukemia development,” (manuscript in preparation). The experiments described in the manuscript are briefly summarized below. Aberrant Syk variants resulting from chromosomal translocation Tel-Syk were tested for its ability to transform pre-B cells by retrovirally transducing freshly isolated bone marrow pre-B cells with IRES-GFP vectors expressing Tel-Syk. […] Transformation of the pre B cells by Tel-Syk activity was confirmed by injecting the TEL-SYK transduced cells into RAG/γC-/- mice, which led to animals presenting symptoms of myelodysplastic disease. […] To test whether inhibition of Syk activity in the cells transformed with Tel-Syk block cell proliferation, the effect of Syk kinase inhibitor 2,4-pyrimidinediamine compound IV was tested in vitro by examining the DNA content of treated cells.

[3] = test system: Myc-transformed pre-B cells; experiment: Proliferation (DNA content) of Myc-transformed pre-B cells; format: cell-based; details: 36 hours, 2 μM
From the text: FIG. 2A is a FACS profile of pre-B cells that were transduced with Myc expression vectors and cultured in the absence of IL-7 for 1 week.
To determine the effect of Syk inhibitor on proliferation of leukemic cells, several tumorigenic pre-B cell lines that induce leukemia after injection into mice were used. Because tumorigenic cells need the pre-B cell receptor (pre-BCR) for proliferation, and Syk is a critical protein for pre-BCR signaling cascade, it is expected that Syk inhibitors will inhibit proliferation of these tumorigenic pre-B cells. […] Cells were injected into […] mice to examine their ability to proliferate in vivo.

[4] = test system: tumorigenic SLP-65−/− pre-B cell lines; experiment: Proliferation (DNA content) of tumorigenic SLP-65-/- pre-B cell lines; format: cell-based; details: 36 hours, 2 μM
[5] = Pharmacokinetics in NOD-SCID mice after PO VII calcium salt (plasma VI); format: in vivo; set-up: T-max (Compound VI in plasma): unit not given here
Experimental: Initial PK data in NOD-SCID mice was generated in an intial study prior to dosing in this study.
Due to precipitates observed in on-study formulations prepared in the initial study and other studies, additional PK data was obtained using remaining dosing solutions after study termination. NOD-SCID female mice (n=4) were dosed with 40 mg/kg dose solution of VII and plasma obtained at 1 hour post dose.
Table 5A and 5B: PO administration of VII Calcium Salt: Mean Concentration of Compound VI in Plasma (ng/mL).

[6] = test system: AML cells harboring Flt-3 ITD; experiment: Apoptosis of AML cells (Annexin V and PI staining); format: cell-based; details: 1 uM, 48 h
Experimental: (§1) AML cells or 32D transfectants were treated for 48 h (AML) or 24 h (32D) with 1 uM VI, and the increase in % of apoptotic cells was determined using Annexin V and PI staining.

[7] = test system: 32D transfected with ITD or point mutated Flt-3; experiment: Apoptosis of 32D transfectants (Annexin V and PI staining); format: cell-based; details: 1 uM, 24 h
Experimental: as §1

[8] = GLP mutagenicity and clastogenicity studies (Ames, chromosomal aberration, mouse micronucleus)
Experimental: (§2) GLP toxicology studies included negative mutagenicity and clastogenicity studies (Ames, chromosomal aberration, and mouse micronucleus). […] The No Observed Adverse Effect Level (NOAEL) is 10-30 mg/kg/day for rats and 100 mg/kg/day for monkeys.

[9] = in vivo
Experimental: as §2

[10] = test system: MV4-11 human acute myeloid leukemia cells; experiment: Subcutaneous MV4-11 tumor growth (initial studies); format: in vivo, mice
From the text: The Flt-3 ITD mutation has been associated with poor prognosis and reduced remission rates in affected AML patients, making it an attractive target for therapeutic intervention. Studies have shown that mutant Flt-3 ITD receptors dimerize in a Flt-3 ligand-independent manner and auto-phosphorylation of the receptor results in constitutive activation, increased proliferation, and growth factor independence of the mutant cell.

COc1cc(Nc2ncc(F)c(Nc3ccc4c(n3)NC(=O)C(C)(C)O4)n2)cc(OC)c1OC [Compound III, N4-(2,2-dimethyl-3-oxo-4H-5-pyrido[1,4]oxazin-6-yl)-5-fluoro-N2-(3,4,5-trimethoxyphenyl)-2,4-pyrimidinediamine]
solubility ([1]; aqueous buffer, phosphate buffer at pH=7.5, read-out: measured solubility): < 1 µg/mL
solubility ([1]; water solubility, read-out: Solubility): 1 to 2 µg/mL (≈ 2.13 to 4.25 µM)
differentiation of TEL-Syk-transformed pre-B cells (kappa light chain expression) [2]: induce differentiation
proliferation of TEL-Syk-transformed pre-B cells ([2]; DNA content, 36 hours, 2 μM): block proliferation
proliferation of Myc-transformed pre-B cells [3]: block the proliferation
proliferation of tumorigenic SLP-65−/− pre-B cell lines [4]: block the proliferation
plasma levels of VI by 6 hours post-dose ([5]; female mice, 20, 40 or 80 mg/kg doses of VII): virtually undetectable
induced apoptosis of AML cells harboring Flt-3 ITD [6]: uniquely sensitive
apoptosis of 32D transfected with ITD or point mutated Flt-3 vs wt Flt-3 [7]: undergo more apoptosis
mutagenicity and clastogenicity (Ames, chromosomal aberration, mouse micronucleus) [8]: negative
28-day toxicity: hematology, bone marrow cellularity ([9]; monkey): reversible effect
28-day toxicity: hematology, liver transaminase, spleen and thymus size, bone marrow cellularity ([9]; rat): reversible effect

N4-(2,2-dimethyl-4-[(dihydrogen phosphonoxy)methyl]-3-oxo-5-pyrido[1,4]oxazin-6-yl)-5-fluoro-N2-(3,4,5-trimethoxyphenyl)-2,4-pyrimidinediamine mono calcium salt [Compound 6]
AUCinf (Compound VI in plasma) ([5]; PO 20 mg/kg, Female): 5362 ng·h/mL
AUClast (Compound VI in plasma) ([5]; PO 20 mg/kg, Female): 5351 ng·h/mL
C-max (Compound VI in plasma) ([5]; PO 20 mg/kg, Female): 3717 ng/mL
T1/2 (Compound VI in plasma) ([5]; PO 20 mg/kg, Female): 35.4 min
T-max (Compound VI in plasma) ([5]; PO 20 mg/kg, Female): 0.25
Mean Concentration of Compound VI in Plasma ([5]; PO 20 mg/kg, Female, 0.25 hrs): 3717 ng/mL
Mean Concentration of Compound VI in Plasma ([5]; PO 20 mg/kg, Female, 0.5 hrs): 2240 ng/mL
Mean Concentration of Compound VI in Plasma ([5]; PO 20 mg/kg, Female, 1 hrs): 1737 ng/mL
Mean Concentration of Compound VI in Plasma ([5]; PO 20 mg/kg, Female, 2 hrs): 1438 ng/mL
Mean Concentration of Compound VI in Plasma ([5]; PO 20 mg/kg, Female, 4 hrs): 55.0 ng/mL
Mean Concentration of Compound VI in Plasma ([5]; PO 20 mg/kg, Female, 6 hrs): 13.0 ng/mL
AUCinf (Compound VI in plasma) ([5]; PO 20 mg/kg, Male): 11434 ng·h/mL
AUClast (Compound VI in plasma) ([5]; PO 20 mg/kg, Male): 10261 ng·h/mL
C-max (Compound VI in plasma) ([5]; PO 20 mg/kg, Male): 3377 ng/mL
T1/2 (Compound VI in plasma) ([5]; PO 20 mg/kg, Male): 107 min
T-max (Compound VI in plasma) ([5]; PO 20 mg/kg, Male): 0.50
Mean Concentration of Compound VI in Plasma ([5]; PO 20 mg/kg, Male, 0.25 hrs): 1872 ng/mL
Mean Concentration of Compound VI in Plasma ([5]; PO 20 mg/kg, Male, 0.5 hrs): 3377 ng/mL
Mean Concentration of Compound VI in Plasma ([5]; PO 20 mg/kg, Male, 1 hrs): 3280 ng/mL
Mean Concentration of Compound VI in Plasma ([5]; PO 20 mg/kg, Male, 2 hrs): 2130 ng/mL
Mean Concentration of Compound VI in Plasma ([5]; PO 20 mg/kg, Male, 4 hrs): 1209 ng/mL
Mean Concentration of Compound VI in Plasma ([5]; PO 20 mg/kg, Male, 6 hrs): 454 ng/mL
AUCinf (Compound VI in plasma) ([5]; PO 40 mg/kg, Female): 11625 ng·h/mL
AUClast (Compound VI in plasma) ([5]; PO 40 mg/kg, Female): 11498 ng·h/mL
C-max (Compound VI in plasma) ([5]; PO 40 mg/kg, Female): 5497 ng/mL
T1/2 (Compound VI in plasma) ([5]; PO 40 mg/kg, Female): 50.4 min
T-max (Compound VI in plasma) ([5]; PO 40 mg/kg, Female): 1.00
Mean Concentration of Compound VI in Plasma ([5]; PO 40 mg/kg, Female, 0.25 hrs): 5140 ng/mL
Mean Concentration of Compound VI in Plasma ([5]; PO 40 mg/kg, Female, 0.5 hrs): 3597 ng/mL
Mean Concentration of Compound VI in Plasma ([5]; PO 40 mg/kg, Female, 1 hrs): 5497 ng/mL
Mean Concentration of Compound VI in Plasma ([5]; PO 40 mg/kg, Female, 2 hrs): 2823 ng/mL
Mean Concentration of Compound VI in Plasma ([5]; PO 40 mg/kg, Female, 4 hrs): 201 ng/mL
Mean Concentration of Compound VI in Plasma ([5]; PO 40 mg/kg, Female, 6 hrs): 105 ng/mL
AUCinf (Compound VI in plasma) ([5]; PO 40 mg/kg, Male): 27170 ng·h/mL
AUClast (Compound VI in plasma) ([5]; PO 40 mg/kg, Male): 20831 ng·h/mL
C-max (Compound VI in plasma) ([5]; PO 40 mg/kg, Male): 6370 ng/mL
T1/2 (Compound VI in plasma) ([5]; PO 40 mg/kg, Male): 138 min
T-max (Compound VI in plasma) ([5]; PO 40 mg/kg, Male): 2.00
Mean Concentration of Compound VI in Plasma ([5]; PO 40 mg/kg, Male, 0.25 hrs): 3587 ng/mL
Mean Concentration of Compound VI in Plasma ([5]; PO 40 mg/kg, Male, 0.5 hrs): 2860 ng/mL
Mean Concentration of Compound VI in Plasma ([5]; PO 40 mg/kg, Male, 1 hrs): 5250 ng/mL
Mean Concentration of Compound VI in Plasma ([5]; PO 40 mg/kg, Male, 2 hrs): 6370 ng/mL
Mean Concentration of Compound VI in Plasma ([5]; PO 40 mg/kg, Male, 4 hrs): 1730 ng/mL
Mean Concentration of Compound VI in Plasma ([5]; PO 40 mg/kg, Male, 6 hrs): 1909 ng/mL
AUCinf (Compound VI in plasma) ([5]; PO 80 mg/kg, Female): 27662 ng·h/mL
AUClast (Compound VI in plasma) ([5]; PO 80 mg/kg, Female): 27013 ng·h/mL
C-max (Compound VI in plasma) ([5]; PO 80 mg/kg, Female): 8193 ng/mL
T1/2 (Compound VI in plasma) ([5]; PO 80 mg/kg, Female): 58.2 min
T-max (Compound VI in plasma) ([5]; PO 80 mg/kg, Female): 2.00
Mean Concentration of Compound VI in Plasma ([5]; PO 80 mg/kg, Female, 0.25 hrs): 3847 ng/mL
Mean Concentration of Compound VI in Plasma ([5]; PO 80 mg/kg, Female, 0.5 hrs): 7433 ng/mL
Mean Concentration of Compound VI in Plasma ([5]; PO 80 mg/kg, Female, 1 hrs): 7267 ng/mL
Mean Concentration of Compound VI in Plasma ([5]; PO 80 mg/kg, Female, 2 hrs): 8193 ng/mL
Mean Concentration of Compound VI in Plasma ([5]; PO 80 mg/kg, Female, 4 hrs): 2529 ng/mL
Mean Concentration of Compound VI in Plasma ([5]; PO 80 mg/kg, Female, 6 hrs): 465 ng/mL
subcutaneous tumor growth [10]: reduced subcutaneous tumor growth
